Reference: patent US20210299260A1, “THERAPEUTIC CONJUGATES” (Ariel Scientific Innovations Ltd., priority 2018, published 2021)

Legend:
[1] = literature report; cited from earlier work
physchem = assay type: physicochemical; conditions: for half-life: buffer
Experimental: These studies were performed for Compound 1 at two pH values: 4.6 and 7.4, and compared to triazene drug dacarbazine (DTIC). These chosen pHs mimic relatively acidic cancer intracellular (pH 4.6) and slightly basic physiological (pH 7.4) environments.
(§1) The results for DTIC are consistent with the reported stability of the control drug in various hydrolytic media. In addition, Compound 1 decomposition has been studied by hepatic cytochrome P450 induction in hepatocellular carcinoma HepG2 cells using LC-MS (FIG. 1D). […] The decomposition of Compound 1 was examined in cell medium and in cell lysate, while the identification of metabolites was carried out solely in cell lysate.

A172 GBM cells = test: Intracranial A172 GBM xenograft model in nude mice (weight, survival, histopathology); conditions: for brain structure in brain sections / tumor area, tumor distribution and invasion in brain sections: H&E stained brain sections at termination; for brain structure in brain sections: FIG. 4; for brain structure in brain sections / tumor area, tumor distribution and invasion in brain sections / body weight gain of tumor-bearing mice / survival of tumor-bearing mice: Compound 1 50 mg/kg, TMZ 25 mg/kg; for body weight gain of tumor-bearing mice / survival of tumor-bearing mice: i.p. once daily, five injections; for body weight gain of tumor-bearing mice: FIG. 2; for survival of tumor-bearing mice: FIG. 3A; for tolerability to treatment: mice bearing GBM tumors, reflected by body weight and survival
Experimental: The efficacy of Compound 1 in inhibition of intracranial malignant brain glioblastoma growth and survival in nude mice was evaluated using nude mice that were implanted with 5×10^5 A172 GBM cells in the right striatum, followed by consequent once daily five intraperitoneal injections with the vehicle, TMZ (25 mg/kg) and Compound 1 (50 mg/kg), on the tenth day after glioblastoma implantation.
Mice brains were collected at termination day determined by appearance of severe clinical signs within tumor progression and invasion in brain tissue. Brains were fixed with 4% PFA, paraffin embedded and serially cut in to 5 μm. Three slides within a distance of 100 μm apart were sampled for each brain, and stained with hematoxyline-eosin dyes (H&E). Tumor area, distribution and invasion in to brain tissue were observed under light microscopy.

[2] = tested on: hepatocellular carcinoma HepG2 cells; test: Decomposition and metabolite detection in HepG2 cells (medium versus cell lysate), LC-MS; assay type: in vitro ADME
Experimental: as §1
It is assumed that this metabolite is the result of oxidation of Compound 1 by hepatic cytochrome P450 and subsequent degradation of two dimethyl triazene tethers in agreement with the mechanism of action of dacarbazine. The observed stability of Compound 1 in PBS potentiates its pharmacological utility during circulation in blood. Therefore, it is concluded that the stability of Compound 1 is sufficient for proceeding to animal models.

[3] = pH 7.4; cited from earlier work
[4] = listed as DKP-dimethyltriazene conjugate

## NCC(=O)CCC(=O)O [5-aminolevulinic acid]
[1]
  BBB permeability: did not show permeability

## CN(C)/N=N/c1ccc(C[C@H]2C(=O)N(C)[C@@H](Cc3ccc(/N=N/N(C)C)cc3)C(=O)N2C)cc1 [Compound 1, (3S,6S)-3,6-bis(4-((E)-3,3-dimethyltriaz-1-en-1-yl)benzyl)-1,4-dimethylpiperazine-2,5-dione]
physchem; pH 4.6
  half-life: 4.8 h
physchem; pH 7.4
  stability in PBS buffer: sufficient stability
A172 GBM cells
  brain structure in brain sections: normal brain structure
  tumor area, tumor distribution and invasion in brain sections: noticeable reduction
  body weight gain of tumor-bearing mice: normal weight gain
  survival of tumor-bearing mice: prominent effect on tumor bearing mice survival rate
  tolerability to treatment: good tolerability
A172 GBM cells; [4]
  body weight gain of tumor-bearing mice: no weight loss
  survival of tumor-bearing mice: superior activity compared to TMZ in overall survival
[2]; HepG2, incubation in cell medium, FIG. 1C
  decomposition in cell medium: continuous decomposition
[2]; HepG2 cell lysate, FIG. 1C
  accumulation/decomposition in cell lysate: gradually accumulated within an hour of incubation and decomposed subsequently
[2]; HepG2 cell lysate, LC-MS, FIG. 1D
  main metabolite detected in cell lysate: containing monomethyl triazene (MTIC like) and aniline (AIC like) groups

## CN(C)/N=N/c1[nH]cnc1C(N)=O [DTIC, dacarbazine, reference compound]
physchem; pH 4.6
  half-life: 5.1 h
physchem; pH 7.4
  half-life: 10.2 h

## Cn1nnc2c(C(N)=O)ncn2c1=O [TMZ, Temozolomide, reference compound]
[3]
  plasma half-life: 1.8 h
A172 GBM cells
  brain structure in brain sections: both lateral and third ventricles were significantly enlarged
  tumor area, tumor distribution and invasion in brain sections: noticeable reduction
  body weight gain of tumor-bearing mice: Significant body weight gain reduction
  tolerability to treatment: relatively toxic and poorly tolerable

## O=C(O)C1CCCNC1 (centres unmarked) [nipecotic acid]
[1]
  BBB permeability: did not show permeability

## NCCCC(=O)O [γ-aminobutyric acid]
[1]
  BBB permeability: did not show permeability

## N-Me-Phe-(N-Me-Phe)3-CONH2
[1]
  BBB permeability: High BBB-permeability
